According to PMC8111447 (Frontiers in Pharmacology, 2021):

What was measured:
PC-9 (EGFR^d746–750) = assay: Cell proliferation assay (CTG, 72 h); format: cell-based, human; conditions: for IC50: Homo sapiens, PC-9 cells, 72 h, mean ± SD, n = 3
Description: (§1) Human lung cancer cell lines (NCI-H1975, H3255 and A431) were obtained from the American Type Culture Collection (ATCC), while PC-9 cell line was supplied by the European Collection of Authenticated Cell Cultures (ECACC). For in vivo implantation, NCI-H1975, H3255 and PC-9 cells were cultured in RPMI1640 (Invitrogen) supplemented with 10% v/v fetal calf serum (Sigma-Aldrich) and 2 mmol/L L-glutamine (Invitrogen). A431 cells were cultured in DMEM (Invitrogen) supplemented with 10% v/v fetal calf serum and 2 mmol/L v/v L-glutamine. All cell lines were then cultured in a humidified incubator with 5% CO2 at 37°C.
(§2) Test compounds were dissolved in DMSO as a 10 mmol/L stock solution. The initial concentration of compounds were 10 μmol/L and the 3-fold dilution was nine times. […] Plate was shaked for 2 min and the mixture was incubated at room temperature for 10 min.
(§3) The half-maximal inhibition concentration (IC50) values were processed by GraphPad Prism7 (GraphPad Software; La Jolla, CA).

H3255 (EGFR^L858R) = assay: Cell proliferation assay (CTG, 72 h); format: cell-based, human; conditions: for IC50: Homo sapiens, NCI-H3255, H3255 cells, 72 h, mean ± SD, n = 3
Description: as §1, §2, §3

FAK(h) = biological target: T1, FAK(h) (Homo sapiens, UniProt Q05397); assay: Kinase panel (Eurofins); format: biochemical; conditions: n = 2; for inhibition at 1 µM: at 1 μmol/L; for IC50: read-out: IC50 kinase inhibition
T1 construct: purchased Eurofins
Excerpt: (§4) These receptors have a methionine gatekeeper in their kinase domains, and are related to hyperglycemia in other clinical trials of EGFR TKI, such as Co-1686.

Flt3 (D835Y) (h) = biological target: T2, Flt3 (D835Y) (h) (Homo sapiens, UniProt P36888, D835Y); assay: Kinase panel (Eurofins); format: biochemical; conditions: n = 2; for inhibition at 1 µM: at 1 μmol/L; for IC50: read-out: IC50 kinase inhibition
T2 construct: purchased Eurofins
T2 sequence (P36888 27-993 D835Y): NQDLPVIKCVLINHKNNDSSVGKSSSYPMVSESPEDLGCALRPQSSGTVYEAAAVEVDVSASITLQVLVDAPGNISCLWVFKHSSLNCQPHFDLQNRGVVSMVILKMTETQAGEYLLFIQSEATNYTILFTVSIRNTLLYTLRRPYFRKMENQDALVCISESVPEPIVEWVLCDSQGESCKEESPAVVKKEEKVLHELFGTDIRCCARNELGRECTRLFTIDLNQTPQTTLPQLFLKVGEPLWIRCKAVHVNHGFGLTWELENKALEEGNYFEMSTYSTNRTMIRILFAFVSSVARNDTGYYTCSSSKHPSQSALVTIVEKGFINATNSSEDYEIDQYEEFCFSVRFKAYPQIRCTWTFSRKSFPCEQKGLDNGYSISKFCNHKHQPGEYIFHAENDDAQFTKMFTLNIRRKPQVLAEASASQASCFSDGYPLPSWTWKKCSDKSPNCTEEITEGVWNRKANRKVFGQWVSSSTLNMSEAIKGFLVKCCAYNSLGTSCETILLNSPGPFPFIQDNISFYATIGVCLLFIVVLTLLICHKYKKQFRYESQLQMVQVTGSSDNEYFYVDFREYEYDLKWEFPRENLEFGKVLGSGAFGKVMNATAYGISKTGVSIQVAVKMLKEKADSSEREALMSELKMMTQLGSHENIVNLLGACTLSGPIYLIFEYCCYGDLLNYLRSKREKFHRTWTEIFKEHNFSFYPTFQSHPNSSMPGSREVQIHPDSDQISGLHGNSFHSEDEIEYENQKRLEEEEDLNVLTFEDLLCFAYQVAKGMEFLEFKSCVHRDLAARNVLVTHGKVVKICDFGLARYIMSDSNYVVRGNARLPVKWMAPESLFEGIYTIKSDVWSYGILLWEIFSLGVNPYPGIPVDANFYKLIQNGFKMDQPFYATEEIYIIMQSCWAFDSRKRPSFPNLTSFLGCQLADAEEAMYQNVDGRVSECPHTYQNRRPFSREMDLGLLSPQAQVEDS
Excerpt: as §4

TSSK1(h) = biological target: T3, TSSK1(h) (Homo sapiens, UniProt Q9BXA7); assay: Kinase panel (Eurofins); format: biochemical; conditions: n = 2; for inhibition at 1 µM: at 1 μmol/L; for IC50: read-out: IC50 kinase inhibition
T3 construct: purchased Eurofins
T3 sequence (Q9BXA7 1-367): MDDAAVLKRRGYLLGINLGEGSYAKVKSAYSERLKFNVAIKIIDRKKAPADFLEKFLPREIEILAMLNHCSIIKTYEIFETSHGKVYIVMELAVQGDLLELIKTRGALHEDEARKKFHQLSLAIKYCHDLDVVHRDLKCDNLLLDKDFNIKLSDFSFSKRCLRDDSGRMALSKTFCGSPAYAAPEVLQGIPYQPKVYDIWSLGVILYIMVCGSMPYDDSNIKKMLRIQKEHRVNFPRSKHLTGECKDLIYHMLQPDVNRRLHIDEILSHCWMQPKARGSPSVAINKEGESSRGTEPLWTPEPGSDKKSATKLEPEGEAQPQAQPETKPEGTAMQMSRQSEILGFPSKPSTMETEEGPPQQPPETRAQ
Excerpt: as §4

Met(h) = biological target: T4, Met(h) (Homo sapiens, UniProt P08581); assay: Kinase panel (Eurofins); format: biochemical; conditions: n = 2; for inhibition at 1 µM: at 1 μmol/L; for IC50: read-out: IC50 kinase inhibition
T4 construct: purchased Eurofins
Excerpt: as §4

Fer(h) = biological target: T5, Fer(h) (Homo sapiens, UniProt P16591); assay: Kinase panel (Eurofins); format: biochemical; conditions: n = 2; for inhibition at 1 µM: at 1 μmol/L; for IC50: read-out: IC50 kinase inhibition
T5 construct: purchased Eurofins
Excerpt: as §4

[1] = tested on: EGFR phosphorylation (pY1068) in NCI-H1975 cells; assay: Phosphorylation of EGFR assay, time course; format: cell-based, human; conditions: 0.1 μmol/L, 1-10 h
Description: Cells (NCI-H1975/PC-9/[…]) were seeded into a 384-well plate (10,000 cells/well), grown for 24 h, and then treated with different test compounds (0.1 μmol/L) for 1, 2, 4, 6, 8 and 10 h. A431 cells were stimulated with 100 ng/ml EGF after incubation for 10 min. Cells were washed with ice-cold HBSS before extraction with 25 μl cell lysis buffer. Phosphorylation of EGFR was measured using a sandwich ELISA assay with phospho-specific EGFR (pY1068) antibodies [AlphaLISA SureFire p-EGF Receptor (Tyr1068) Assay Kit, PerkinElmer].

[2] = tested on: NCI-H1975 (L858R/T790M) xenograft; assay: NCI-H1975 xenograft model; format: in vivo, Nu/Nu nude mice; conditions: for tumor growth inhibition rate: after 14 days of dosing, vs vehicle
Description: The female Nu/Nu nude mice were purchased from Beijing Vital River Laboratories. […] Nu/Nu nude mice were purchased from the Beijing Vital River Laboratories of China. The 6–8 weeks old female mice were inoculated subcutaneously at the right flank with approximately 3–5 × 10^6 tumor cells in 0.2 ml of medium. The treatments were started when the tumor size reached approximately 200 mm^3. […] All mice were orally administrated once daily for consecutive 14 days. Mouse body weight, tumor weight and tumor volume (TV) were measured twice per week. TV was then used for the calculation of tumor inhibitory rate and tumor regression rate.

T4 sequence (P08581 25-1390): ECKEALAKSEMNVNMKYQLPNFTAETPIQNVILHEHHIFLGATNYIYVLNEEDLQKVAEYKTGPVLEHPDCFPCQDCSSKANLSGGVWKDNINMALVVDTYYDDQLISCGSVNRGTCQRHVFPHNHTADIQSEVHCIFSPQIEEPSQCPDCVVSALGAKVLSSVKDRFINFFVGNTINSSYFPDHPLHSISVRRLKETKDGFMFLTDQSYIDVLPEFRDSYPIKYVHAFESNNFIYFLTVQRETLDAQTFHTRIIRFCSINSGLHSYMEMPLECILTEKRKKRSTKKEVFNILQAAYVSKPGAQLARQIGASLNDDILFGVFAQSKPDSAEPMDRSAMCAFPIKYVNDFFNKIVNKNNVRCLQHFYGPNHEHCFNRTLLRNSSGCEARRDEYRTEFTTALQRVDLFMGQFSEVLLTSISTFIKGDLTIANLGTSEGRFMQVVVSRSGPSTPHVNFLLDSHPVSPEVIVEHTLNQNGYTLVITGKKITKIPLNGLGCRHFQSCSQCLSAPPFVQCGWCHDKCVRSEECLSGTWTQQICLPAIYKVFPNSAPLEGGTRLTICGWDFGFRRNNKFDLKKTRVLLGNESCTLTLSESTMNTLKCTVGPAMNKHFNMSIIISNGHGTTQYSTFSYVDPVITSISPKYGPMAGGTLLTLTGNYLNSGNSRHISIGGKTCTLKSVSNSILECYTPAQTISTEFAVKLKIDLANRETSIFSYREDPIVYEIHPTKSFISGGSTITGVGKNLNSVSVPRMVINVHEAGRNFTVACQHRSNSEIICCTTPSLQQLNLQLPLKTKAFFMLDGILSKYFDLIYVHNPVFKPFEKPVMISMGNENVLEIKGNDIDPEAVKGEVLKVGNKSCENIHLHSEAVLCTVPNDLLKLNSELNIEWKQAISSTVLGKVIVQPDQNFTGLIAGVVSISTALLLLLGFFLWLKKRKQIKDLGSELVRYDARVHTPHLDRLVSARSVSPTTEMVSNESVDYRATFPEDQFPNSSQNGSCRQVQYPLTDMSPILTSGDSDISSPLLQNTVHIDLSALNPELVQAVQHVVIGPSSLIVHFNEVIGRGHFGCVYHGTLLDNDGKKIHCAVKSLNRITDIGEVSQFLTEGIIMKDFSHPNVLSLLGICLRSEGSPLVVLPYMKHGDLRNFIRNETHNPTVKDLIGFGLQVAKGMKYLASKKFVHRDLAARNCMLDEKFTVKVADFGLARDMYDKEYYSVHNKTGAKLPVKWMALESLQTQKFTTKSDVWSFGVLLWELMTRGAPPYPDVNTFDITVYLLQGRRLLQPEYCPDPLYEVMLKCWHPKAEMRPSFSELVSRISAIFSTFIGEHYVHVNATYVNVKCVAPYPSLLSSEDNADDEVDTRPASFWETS
T5 sequence (P16591 whole entry): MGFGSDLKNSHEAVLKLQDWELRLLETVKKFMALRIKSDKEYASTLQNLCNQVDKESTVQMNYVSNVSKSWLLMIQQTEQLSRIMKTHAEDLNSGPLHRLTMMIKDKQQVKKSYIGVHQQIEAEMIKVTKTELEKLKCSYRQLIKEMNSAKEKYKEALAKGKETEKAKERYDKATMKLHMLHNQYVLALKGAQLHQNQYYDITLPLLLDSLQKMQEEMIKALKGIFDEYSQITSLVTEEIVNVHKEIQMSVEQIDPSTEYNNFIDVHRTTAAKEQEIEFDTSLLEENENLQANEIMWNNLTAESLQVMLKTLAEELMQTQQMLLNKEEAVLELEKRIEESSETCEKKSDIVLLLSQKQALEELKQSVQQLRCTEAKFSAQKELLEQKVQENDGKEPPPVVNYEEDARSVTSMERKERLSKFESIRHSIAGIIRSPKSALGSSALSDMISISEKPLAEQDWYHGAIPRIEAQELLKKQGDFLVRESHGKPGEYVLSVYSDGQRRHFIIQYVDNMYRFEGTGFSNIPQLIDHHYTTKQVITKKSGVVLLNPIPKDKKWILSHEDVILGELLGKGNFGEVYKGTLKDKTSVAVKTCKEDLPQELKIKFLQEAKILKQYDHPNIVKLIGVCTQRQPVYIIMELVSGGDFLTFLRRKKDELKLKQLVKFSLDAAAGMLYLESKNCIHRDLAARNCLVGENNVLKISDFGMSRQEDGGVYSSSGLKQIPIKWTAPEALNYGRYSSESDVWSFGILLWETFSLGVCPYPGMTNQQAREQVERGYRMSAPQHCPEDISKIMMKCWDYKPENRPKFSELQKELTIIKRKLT
T1 sequence (Q05397 whole entry): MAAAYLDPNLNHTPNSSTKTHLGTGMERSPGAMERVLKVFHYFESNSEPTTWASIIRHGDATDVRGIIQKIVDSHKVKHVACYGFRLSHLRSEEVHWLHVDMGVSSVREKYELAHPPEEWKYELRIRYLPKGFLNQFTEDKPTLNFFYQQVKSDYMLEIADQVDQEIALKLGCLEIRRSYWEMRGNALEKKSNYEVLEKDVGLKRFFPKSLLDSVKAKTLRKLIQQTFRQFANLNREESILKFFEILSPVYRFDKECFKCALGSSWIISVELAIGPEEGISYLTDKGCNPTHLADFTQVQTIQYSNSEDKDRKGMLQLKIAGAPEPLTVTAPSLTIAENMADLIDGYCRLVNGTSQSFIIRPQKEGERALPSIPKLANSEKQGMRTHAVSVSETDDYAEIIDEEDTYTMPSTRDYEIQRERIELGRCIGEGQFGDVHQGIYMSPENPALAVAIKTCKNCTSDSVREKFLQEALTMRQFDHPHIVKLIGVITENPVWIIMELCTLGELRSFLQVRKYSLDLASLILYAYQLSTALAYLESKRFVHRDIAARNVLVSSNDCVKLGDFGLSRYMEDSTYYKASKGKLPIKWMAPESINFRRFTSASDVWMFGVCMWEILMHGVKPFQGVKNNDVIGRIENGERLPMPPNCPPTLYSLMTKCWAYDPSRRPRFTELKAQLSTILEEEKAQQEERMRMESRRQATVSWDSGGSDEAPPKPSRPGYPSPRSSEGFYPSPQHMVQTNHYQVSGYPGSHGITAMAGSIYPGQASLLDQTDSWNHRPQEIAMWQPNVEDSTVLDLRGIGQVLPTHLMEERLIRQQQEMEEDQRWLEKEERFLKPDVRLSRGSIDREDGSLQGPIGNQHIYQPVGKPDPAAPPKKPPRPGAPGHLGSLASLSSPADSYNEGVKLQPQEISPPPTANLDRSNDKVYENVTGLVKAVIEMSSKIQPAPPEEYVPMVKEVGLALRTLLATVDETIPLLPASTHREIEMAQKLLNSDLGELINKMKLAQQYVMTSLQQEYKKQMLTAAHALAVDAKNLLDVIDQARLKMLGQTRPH

| Structure (SMILES) | IC50 (PC-9 (EGFR^d746–750)) [µM] | IC50 (H3255 (EGFR^L858R)) [µM] | inhibition at 1 µM (FAK(h)) [%] | IC50 (FAK(h)) [µM] | inhibition at 1 µM (Flt3 (D835Y) (h)) [%] | IC50 (Flt3 (D835Y) (h)) [µM] | inhibition at 1 µM (TSSK1(h)) [%] | IC50 (TSSK1(h)) [µM] | inhibition at 1 µM (Met(h)) [%] | IC50 (Met(h)) [µM] | inhibition at 1 µM (Fer(h)) [%] | IC50 (Fer(h)) [µM] | inhibitory effect on EGFR phosphorylation [1] | fold more sensitive than the inhibition of wild-type EGFR in A431 cells (PC-9 (EGFR^d746–750); PC-9 vs A431, proliferation IC50) [fold] | fold more sensitive than the inhibition of wild-type EGFR in A431 cells (H3255 (EGFR^L858R); H3255 vs A431, proliferation IC50) [fold] | tumor growth inhibition rate ([2]; 2.5 mg/kg oral once daily) [%] | tumor growth inhibition rate ([2]; 5 mg/kg oral once daily) [%] | tumor growth inhibition rate ([2]; 15 mg/kg oral once daily) [%] | body weight ([2]; 2.5 to 15 mg/kg oral once daily, 14 days) |
| --- | --- | --- | --- | --- | --- | --- | --- | --- | --- | --- | --- | --- | --- | --- | --- | --- | --- | --- | --- |
| C=CC(=O)Nc1cc(Nc2nccc(-c3c4n(c5ccccc35)CCCC4)n2)c(OC)cc1N(C)CCNC [Imp3] | 0.015 ± 0.00065 | 0.0171 ± 0.00055 | 87 | 0.267 | 99 | 0.041 | 98 | 0.073 | 73 | 0.486 | 80 | 0.452 | stronger inhibitory effects on EGFR phosphorylation compared to osimertinib |  |  |  |  |  |  |
| C=CC(=O)Nc1cc(Nc2nccc(-c3c4n(c5ccccc35)CCCC4)n2)c(OC)cc1N(C)CCN(C)C [SH-1028] | 0.00763 ± 0.00018 | 0.00939 ± 0.00088 | 68 | 0.235 | 86 | 0.078 | 84 | 0.104 | 46 | 0.737 | 45 | 0.542 | stronger inhibitory effects on EGFR phosphorylation compared to osimertinib | ~102 | ~83 | 72.6 | 91.8 | 98.8 | no TKI-induced weight loss |
